Measurements published in US7632830B2, “Lactam compounds and pharmaceutical use thereof” (Ajinomoto Co., Inc., priority 2000, dated 2009).

System: adipose cells of rats
Test: Evaluation of the sugar-transporting activity (2-[14C(U)]-deoxy-D-glucose incorporation)
Format: cell-based
Details: 100 μg/ml of each compound; evaluated on the basis of the reinforcing effect of insulin (100 nM); rat adipose cells
Protocol: After the decapitation and venesection of 6 male Wistar rats (body weight: 150 to 200 g), an incision was made in the abdomen of each rat to extract 6 g in total of epididymal adipose tissues. The tissues were finely cut into 2 mm×2 mm pieces in 6 ml of KRH (Krebs-Ringer Hepes, composition: 130 mM of sodium chloride, 4.7 mM of potassium chloride, 1.2 mM of potassium dihydrogenphosphate, 1.2 mM of magnesium sulfate, 1 mM of calcium chloride and 25 mM of Hepes, pH=7.6) containing 5% of BSA (bovine serum albumin). 24 mg of collagenase (type I) was added thereto and the digestion treatment was conducted for about 40 minutes to obtain about 6 ml of isolated adipose cells. The collagenase was removed by the buffer exchange. 2% BSA/KRH solution was added to the residue for the re-suspension to obtain 45 ml of an adipose cell suspension.
The sugar-transporting activity of the compounds of the present invention was evaluated with reference to a method described in a literature [Annual Review of Biochemistry, Vol. 55, p. 1059 (1986)]. In the test, 200 μl of the adipose cell suspension was poured in each polystyrene test tube, 100 μl of the solution of the test substance (by dilution of 10 mg/ml substance dimethyl sulfoxide solution with KRH) was added thereto, and the obtained mixture was shaken and then cultured at 37° C. for 30 minutes.
The sugar-transporting activity was evaluated by measuring the quantity of 2-[^14C(U)]-deoxy-D-glucose incorporated per a unit time. Namely, 2-[^14C(U)]-deoxy-D-glucose was added to the adipose cell suspension after the pre-culture (the final concentration: 0.5 μCi/sample). 5 minutes after, cytochalasin B (final concentration: 10 μM) was added to the mixture to terminate the sugar transportation. After forming a dinonyl phthalate layer, the obtained mixture was centrifuged to separate the adipose cells from the buffer. The quantity of 2-[^14C(U)]-deoxy-D-glucose contained in the adipose cell layer was determined with a liquid scintillation counter to determine the quantity of the incorporated sugar. In this evaluation system, when insulin (100 nM) having the effect of increasing the sugar transportation was used, the effect was about 7 times as high as that obtained in the insulin-free control group.
The results of the evaluation of the sugar-transporting activity obtained by using 100 μg/ml of each compound of the present invention are shown in Table 6. The sugar transporting activity in Table 6 was evaluated on the basis of the reinforcing effect of insulin (100 nM). […] The symbols in Table 6 are as follows: • No: Example No., and • A: sugar transporting activity.
The results of the evaluation of the sugar-transporting activity obtained by using each compound of the present invention are shown in Table 7. The sugar transporting activity in Table 7 was determined in terms of the concentration (EC50: μg/ml) of a test compound, having a reinforcing effect corresponding to 50% on the basis of the reinforcing effect of insulin having a reinforcing effect of 100%.

**Q.** With `O=C1NCC2=C1C(c1ccc(OCCC34CC5CC(CC(C5)C3)C4)cc1)Nc1ccccc1N2` (stereo not drawn) [Example 15] as the compound, how does the activation at 100 µg/mL read?
**A.** Its activation at 100 µg/mL is 40 to 70%.

**Q.** How did the activation at 100 µg/mL turn out when `CCCCCCOc1ccc(C2Nc3ccccc3NC3=C2C(=O)NC3)c(O)c1` (stereo not drawn) [Example 29] was run?
**A.** The activation at 100 µg/mL was 20 to 40%.

**Q.** With `CCCOc1ccc(C2Nc3ccccc3NC3=C2C(=O)NC3)c(OCC)c1` (stereo not drawn) [Example 26] as the compound, how does the activation at 100 µg/mL read?
**A.** Its activation at 100 µg/mL is 40 to 70%.

**Q.** How did the activation at 100 µg/mL turn out when `CCCCCCCCCCCCOc1ccc(C2Nc3ccccc3NC3=C2C(=O)NC3)cc1` (stereo not drawn) [Example 11] was run?
**A.** The activation at 100 µg/mL was 40 to 70%.

**Q.** Which activation at 100 µg/mL does the source give for `O=C1NCC2=C1C(c1ccc(C#Cc3ccccc3)cc1)Nc1ccccc1N2` (stereo not drawn) [Example 6] here?
**A.** The activation at 100 µg/mL was 40 to 70%.

**Q.** `O=C1NCC2=C1C(c1ccc3c(c1)Cc1ccccc1-3)Nc1ccccc1N2` (stereo not drawn) [Example 9] was tested. Which activation at 100 µg/mL did it give?
**A.** The activation at 100 µg/mL was 40 to 70%.

**Q.** Which activation at 100 µg/mL does the source give for `O=C1NCC2=C1C(c1ccc(-c3ccc([N+](=O)[O-])cc3)cc1)Nc1ccccc1N2` (stereo not drawn) [Example 8] here?
**A.** Its activation at 100 µg/mL is at least 70%.

**Q.** With `CCCCOc1ccc(C2Nc3ccccc3NC3=C2C(=O)NC3)c(OC)c1` (stereo not drawn) [Example 21] as the compound, how does the activation at 100 µg/mL read?
**A.** The activation at 100 µg/mL was 40 to 70%.

**Q.** With `CCCOc1cc(OCC)ccc1C1Nc2ccccc2NC2=C1C(=O)NC2` (stereo not drawn) [Example 25] as the compound, how does the activation at 100 µg/mL read?
**A.** Its activation at 100 µg/mL is 40 to 70%.

Same assay, conditions: concentration having a reinforcing effect corresponding to 50% of the reinforcing effect of insulin (100%); rat adipose cells

**Q.** Which “A: sugar transporting activity (EC50)” value does the source give for `CCOCC(=O)N1[C@@H]2CCCC[C@H]2NC2=C(C(=O)NC2)[C@H]1c1ccccc1OC(C)C` [Example 100] here?
**A.** The value was 2 µg/mL.

**Q.** With `COc1ccccc1[C@@H]1C2=C(CNC2=O)N[C@@H]2CCCC[C@H]2N1C(=O)CCc1ccccc1` [Example 68] as the compound, how does the “A: sugar transporting activity (EC50)” value read?
**A.** Its value is 0.9 µg/mL.

**Q.** `COc1ccccc1[C@@H]1C2=C(CNC2=O)N[C@@H]2CCCC[C@H]2N1C(=O)CCN` [Example 66] was tested. Which “A: sugar transporting activity (EC50)” value did it give?
**A.** The value was 8 µg/mL.

**Q.** `CC=CC(=O)N1C(c2ccccc2OC)C2=C(CNC2=O)NC2CCCCC21` (stereo not drawn) [Example 59] was tested. Which “A: sugar transporting activity (EC50)” value did it give?
**A.** Its value is 1.1 µg/mL.

**Q.** `COc1ccccc1CCC(=O)N1[C@@H]2CCCC[C@H]2NC2=C(C(=O)NC2)[C@H]1c1ccccc1OC` [Example 69] was tested. Which “A: sugar transporting activity (EC50)” value did it give?
**A.** The value was 4 µg/mL.

**Q.** With `COc1ccc(F)cc1[C@@H]1C2=C(CNC2=O)N[C@@H]2CCCC[C@H]2N1C(C)=O` [Example 113] as the compound, how does the “A: sugar transporting activity (EC50)” value read?
**A.** Its value is 10 µg/mL.

**Q.** Which “A: sugar transporting activity (EC50)” value does the source give for `COc1ccccc1[C@@H]1C2=C(CNC2=O)N[C@@H]2CCCC[C@H]2N1C(=O)OCc1ccccc1` [Example 82] here?
**A.** The value was 6 µg/mL.

**Q.** For `COc1ccccc1[C@@H]1C2=C(CNC2=O)N[C@@H]2CCCC[C@H]2N1C(=O)CCc1ccc(F)c(F)c1` [Example 70], which “A: sugar transporting activity (EC50)” value is on record?
**A.** The value was 4.2 µg/mL.

**Q.** For `CC(=O)OCC(=O)N1[C@@H]2CCCC[C@H]2NC2=C(C(=O)NC2)[C@H]1c1ccccc1C` [Example 120], which “A: sugar transporting activity (EC50)” value is on record?
**A.** Its value is 8 µg/mL.

**Q.** `CCOCC(=O)N1[C@@H]2CCCC[C@H]2NC2=C(C(=O)NC2)[C@H]1c1ccccc1CC` [Example 129] was tested. Which “A: sugar transporting activity (EC50)” value did it give?
**A.** Its value is 5.4 µg/mL.

**Q.** `CCOc1ccccc1[C@@H]1C2=C(CNC2=O)N[C@@H]2CCCC[C@H]2N1C(=O)CO` [Example 92] was tested. Which “A: sugar transporting activity (EC50)” value did it give?
**A.** Its value is 3.8 µg/mL.

**Q.** Which “A: sugar transporting activity (EC50)” value does the source give for `COC(=O)N1[C@@H]2CCCC[C@H]2NC2=C(C(=O)NC2)[C@H]1c1ccccc1OC(C)C` [Example 101] here?
**A.** Its value is 4.8 µg/mL.

**Q.** `CSc1ccccc1[C@@H]1C2=C(CNC2=O)N[C@@H]2CCCC[C@H]2N1C(=O)CCc1nccs1` [Example 173] was tested. Which “A: sugar transporting activity (EC50)” value did it give?
**A.** Its value is 0.060 µg/mL.

**Q.** How did the “A: sugar transporting activity (EC50)” value turn out when `CCC(=O)N1[C@@H]2CCCC[C@H]2NC2=C(C(=O)NC2)[C@H]1c1ccccc1OC` [Example 46] was run?
**A.** The value was 0.77 µg/mL.

**Q.** With `CCOCC(=O)N1[C@@H]2CCCC[C@H]2NC2=C(C(=O)NC2)[C@H]1c1ccccc1Br` [Example 137] as the compound, how does the “A: sugar transporting activity (EC50)” value read?
**A.** Its value is 8.6 µg/mL.

**Q.** `COc1ccccc1[C@@H]1C2=C(CNC2=O)N[C@@H]2CCCC[C@H]2N1C(=O)COc1ccccc1` [Example 55] was tested. Which “A: sugar transporting activity (EC50)” value did it give?
**A.** The value was 4.6 µg/mL.

**Q.** `COCCC(=O)N1[C@@H]2CCCC[C@H]2NC2=C(C(=O)NC2)[C@H]1c1ccccc1OC` [Example 67] was tested. Which “A: sugar transporting activity (EC50)” value did it give?
**A.** Its value is 3.4 µg/mL.

**Q.** With `CC(=O)N1[C@@H]2CCCC[C@H]2NC2=C(C(=O)NC2)[C@H]1c1ccccc1OCc1ccccc1` [Example 103] as the compound, how does the “A: sugar transporting activity (EC50)” value read?
**A.** Its value is 3.6 µg/mL.

**Q.** For `CCCC(=O)N1[C@@H]2CCCC[C@H]2NC2=C(C(=O)NC2)[C@H]1c1ccccc1CC` [Example 126], which “A: sugar transporting activity (EC50)” value is on record?
**A.** Its value is 5 µg/mL.

**Q.** Which “A: sugar transporting activity (EC50)” value does the source give for `COc1ccccc1[C@@H]1C2=C(CNC2=O)N[C@@H]2CCCC[C@H]2N1C(=O)c1cnccn1` [Example 79] here?
**A.** The value was 8.6 µg/mL.

**Q.** For `CCCC(=O)N1[C@@H]2CCCC[C@H]2NC2=C(C(=O)NC2)[C@H]1c1ccccc1OCC` [Example 89], which “A: sugar transporting activity (EC50)” value is on record?
**A.** Its value is 1.3 µg/mL.

**Q.** Which “A: sugar transporting activity (EC50)” value does the source give for `CC(=O)N1[C@@H]2CCCC[C@H]2NC2=C(C(=O)NC2)[C@H]1c1ccccc1C` [Example 123] here?
**A.** Its value is 5 µg/mL.

**Q.** For `COC(=O)N1[C@@H]2CCCC[C@H]2NC2=C(C(=O)NC2)[C@H]1c1ccccc1Cl` [Example 147], which “A: sugar transporting activity (EC50)” value is on record?
**A.** Its value is 2.4 µg/mL.

Same assay, conditions: insulin 100 nM; rat adipose cells

**Q.** How did the “effect of increasing the sugar transportation relative to insulin-free control group” value turn out when “insulin: insulin (100 nM) having the effect of increasing the sugar transportation; reference for the reinforcing effect [reference compound]” was run?
**A.** The value was “about 7 times”.
